# Assays:
# Type in all cases: in vivo
# [1] = tested on: blackgrass (Alopecurus myosuroides); assay: Test C preemergence, blackgrass; conditions: 0 is no effect, 100 is complete control
# Source text: (§1) Seeds of plant species selected from blackgrass (Alopecurus myosuroides), corn (Zea mays), foxtail, giant (giant foxtail, Setaria faberi), goosegrass (Eleusine indica), kochia (Bassia scoparia), oat, wild (wild oat, Avena fatua), pigweed, palmer (palmer amaranth, Amaranthus palmeri), ragweed (common ragweed, Ambrosia artemisiifolia), ryegrass, Italian (Italian ryegrass, Lolium multiflorum), soybean (Glycine max) and wheat (Triticum aestivum) were planted into a blend of loam soil and sand and treated preemergence with a directed soil spray using test chemicals formulated in a non-phytotoxic solvent mixture which included a surfactant.
# (§2) At the same time, plants selected from these crop and weed species and also galium (catchweed bedstraw, Galium aparine) and horseweed (Erigeron canadensis) were planted in pots containing the same blend of loam soil and sand and treated with postemergence applications of test chemicals formulated in the same manner. Plants ranged in height from 2 to 10 cm and were in the one- to two-leaf stage for the postemergence treatment. Treated plants and untreated controls were maintained in a greenhouse for 10 or 12 days, after which time all treated plants were compared to untreated controls and visually evaluated for injury. Plant response ratings, summarized in Table A, are based on a 0 to 100 scale where 0 is no effect and 100 is complete control. A dash (-) response means no test result.
# [2] = tested on: corn (Zea mays); assay: Test C preemergence, corn; conditions: 0 is no effect, 100 is complete control
# Source text: as §1, §2
# [3] = tested on: foxtail, giant (giant foxtail, Setaria faberi); assay: Test C preemergence, giant foxtail; conditions: 0 is no effect, 100 is complete control
# Source text: as §1, §2
# [4] = tested on: goosegrass (Eleusine indica); assay: Test C preemergence, goosegrass; conditions: 0 is no effect, 100 is complete control
# Source text: as §1, §2
# [5] = tested on: kochia (Bassia scoparia); assay: Test C preemergence, kochia; conditions: 0 is no effect, 100 is complete control
# Source text: as §1, §2
# [6] = tested on: oat, wild (wild oat, Avena fatua); assay: Test C preemergence, wild oat; conditions: 0 is no effect, 100 is complete control
# Source text: as §1, §2
# [7] = tested on: pigweed, palmer (palmer amaranth, Amaranthus palmeri); assay: Test C preemergence, palmer amaranth; conditions: 0 is no effect, 100 is complete control
# Source text: as §1, §2
# [8] = tested on: ragweed (common ragweed, Ambrosia artemisiifolia); assay: Test C preemergence, ragweed; conditions: 0 is no effect, 100 is complete control
# Source text: as §1, §2
# [9] = tested on: ryegrass, Italian (Italian ryegrass, Lolium multiflorum); assay: Test C preemergence, Italian ryegrass; conditions: 0 is no effect, 100 is complete control
# Source text: as §1, §2
# [10] = tested on: soybean (Glycine max); assay: Test C preemergence, soybean; conditions: 0 is no effect, 100 is complete control
# Source text: as §1, §2
# [11] = tested on: wheat (Triticum aestivum); assay: Test C preemergence, wheat; conditions: 0 is no effect, 100 is complete control
# Source text: as §1, §2
# [12] = tested on: blackgrass (Alopecurus myosuroides); assay: Test C postemergence, blackgrass; conditions: visual injury, 0 to 100 scale (0 no effect, 100 complete control)
# Source text: as §1, §2
# [13] = tested on: corn (Zea mays); assay: Test C postemergence, corn; conditions: visual injury, 0 to 100 scale (0 no effect, 100 complete control)
# Source text: as §1, §2
# [14] = tested on: foxtail, giant (giant foxtail, Setaria faberi); assay: Test C postemergence, giant foxtail; conditions: visual injury, 0 to 100 scale (0 no effect, 100 complete control)
# Source text: as §1, §2
# [15] = tested on: goosegrass (Eleusine indica); assay: Test C postemergence, goosegrass; conditions: visual injury, 0 to 100 scale (0 no effect, 100 complete control)
# Source text: as §1, §2
# [16] = tested on: kochia (Bassia scoparia); assay: Test C postemergence, kochia; conditions: visual injury, 0 to 100 scale (0 no effect, 100 complete control)
# Source text: as §1, §2
# [17] = tested on: oat, wild (wild oat, Avena fatua); assay: Test C postemergence, wild oat; conditions: visual injury, 0 to 100 scale (0 no effect, 100 complete control)
# Source text: as §1, §2
# [18] = tested on: pigweed, palmer (palmer amaranth, Amaranthus palmeri); assay: Test C postemergence, palmer amaranth; conditions: visual injury, 0 to 100 scale (0 no effect, 100 complete control)
# Source text: as §1, §2
# [19] = tested on: ragweed (common ragweed, Ambrosia artemisiifolia); assay: Test C postemergence, ragweed; conditions: visual injury, 0 to 100 scale (0 no effect, 100 complete control)
# Source text: as §1, §2
# [20] = tested on: ryegrass, Italian (Italian ryegrass, Lolium multiflorum); assay: Test C postemergence, Italian ryegrass; conditions: visual injury, 0 to 100 scale (0 no effect, 100 complete control)
# Source text: as §1, §2
# [21] = tested on: soybean (Glycine max); assay: Test C postemergence, soybean; conditions: visual injury, 0 to 100 scale (0 no effect, 100 complete control)
# Source text: as §1, §2
# [22] = tested on: wheat (Triticum aestivum); assay: Test C postemergence, wheat; conditions: visual injury, 0 to 100 scale (0 no effect, 100 complete control)
# Source text: as §1, §2
# [23] = tested on: galium (catchweed bedstraw, Galium aparine); assay: Test C postemergence, galium; conditions: visual injury, 0 to 100 scale (0 no effect, 100 complete control)
# Source text: as §1, §2
# [24] = tested on: horseweed (Erigeron canadensis); assay: Test C postemergence, horseweed; conditions: visual injury, 0 to 100 scale (0 no effect, 100 complete control)
# Source text: as §1, §2
# [25] = tested on: barnyardgrass (Echinochloa crusgalli); assay: Test D flooded paddy test, barnyardgrass; parameters: key: 0 = no effect, 100 = complete control; conditions: 250 g ai/ha, Flood; applied to paddy water at 2-leaf stage; visual rating after 13 days; scale 0 (no effect) to 100 (complete control)
# Protocol: (§3) Plant species in the flooded paddy test selected from barnyardgrass (Echinochloa crusgalli), ducksalad (Heteranthera limosa), rice (Oryza sativa), and sedge, umbrella (small-flower umbrella sedge, Cyperus difformis) were grown to the 2-leaf stage for testing. At time of treatment, test pots were flooded to 3 cm above the soil surface, treated by application of test compounds directly to the paddy water, and then maintained at that water depth for the duration of the test. Treated plants and controls were maintained in a greenhouse for 13 days, after which time all species were compared to controls and visually evaluated. Plant response ratings, summarized in Table B, are based on a scale of 0 to 100 where 0 is no effect and 100 is complete control. A dash (-) response means no test result.
# [26] = tested on: ducksalad (Heteranthera limosa); assay: Test D flooded paddy test, ducksalad; parameters: key: 0 = no effect, 100 = complete control; conditions: 250 g ai/ha, Flood; applied to paddy water at 2-leaf stage; visual rating after 13 days; scale 0 (no effect) to 100 (complete control)
# Protocol: as §3
# [27] = tested on: rice (Oryza sativa); assay: Test D flooded paddy test, rice; parameters: key: 0 = no effect, 100 = complete control; conditions: 250 g ai/ha, Flood; applied to paddy water at 2-leaf stage; visual rating after 13 days; scale 0 (no effect) to 100 (complete control)
# Protocol: as §3
# [28] = tested on: sedge, umbrella (small-flower umbrella sedge, Cyperus difformis); assay: Test D flooded paddy test, umbrella sedge; parameters: key: 0 = no effect, 100 = complete control; conditions: 250 g ai/ha, Flood; applied to paddy water at 2-leaf stage; visual rating after 13 days; scale 0 (no effect) to 100 (complete control)
# Protocol: as §3
smiles,measurement,setting,value
C=C(C)COC1CCN(c2cc(NS(=O)(=O)C(F)(F)F)c(C)cc2C)C1=O (stereo not shown) [Compound 59],"Plant response rating (0 to 100 scale), Blackgrass",[1]; 31 g ai/ha Preemergence,70
same,"Plant response rating (0 to 100 scale), Blackgrass",[1]; 125 g ai/ha Preemergence,90
same,"Plant response rating (0 to 100 scale), Corn",[2]; 31 g ai/ha Preemergence,40
same,"Plant response rating (0 to 100 scale), Corn",[2]; 125 g ai/ha Preemergence,100
same,"Plant response rating (0 to 100 scale), Foxtail, Giant",[3]; 31 g ai/ha Preemergence,100
same,"Plant response rating (0 to 100 scale), Foxtail, Giant",[3]; 125 g ai/ha Preemergence,100
same,"Plant response rating (0 to 100 scale), Goosegrass",[4]; 31 g ai/ha Preemergence,90
same,"Plant response rating (0 to 100 scale), Goosegrass",[4]; 125 g ai/ha Preemergence,100
same,"Plant response rating (0 to 100 scale), Kochia",[5]; 31 g ai/ha Preemergence,80
same,"Plant response rating (0 to 100 scale), Kochia",[5]; 125 g ai/ha Preemergence,100
same,"Plant response rating (0 to 100 scale), Oat, Wild",[6]; 31 g ai/ha Preemergence,80
same,"Plant response rating (0 to 100 scale), Oat, Wild",[6]; 125 g ai/ha Preemergence,100
same,"Plant response rating (0 to 100 scale), Pigweed, Palmer",[7]; 31 g ai/ha Preemergence,100
same,"Plant response rating (0 to 100 scale), Pigweed, Palmer",[7]; 125 g ai/ha Preemergence,100
same,"Plant response rating (0 to 100 scale), Ragweed",[8]; 31 g ai/ha Preemergence,50
same,"Plant response rating (0 to 100 scale), Ragweed",[8]; 125 g ai/ha Preemergence,70
same,"Plant response rating (0 to 100 scale), Ryegrass, Italian",[9]; 31 g ai/ha Preemergence,30
same,"Plant response rating (0 to 100 scale), Ryegrass, Italian",[9]; 125 g ai/ha Preemergence,100
same,"Plant response rating (0 to 100 scale), Soybean",[10]; 31 g ai/ha Preemergence,60
same,"Plant response rating (0 to 100 scale), Soybean",[10]; 125 g ai/ha Preemergence,90
same,"Plant response rating (0 to 100 scale), Wheat",[11]; 31 g ai/ha Preemergence,40
same,"Plant response rating (0 to 100 scale), Wheat",[11]; 125 g ai/ha Preemergence,100
same,Blackgrass plant response rating,[12]; 31 g ai/ha Postemergence,10
same,Blackgrass plant response rating,[12]; 125 g ai/ha Postemergence,80
same,Corn plant response rating,[13]; 31 g ai/ha Postemergence,20
same,Corn plant response rating,[13]; 125 g ai/ha Postemergence,90
same,"Foxtail, Giant plant response rating",[14]; 31 g ai/ha Postemergence,10
same,"Foxtail, Giant plant response rating",[14]; 125 g ai/ha Postemergence,90
same,Goosegrass plant response rating,[15]; 31 g ai/ha Postemergence,70
same,Goosegrass plant response rating,[15]; 125 g ai/ha Postemergence,90
same,Kochia plant response rating,[16]; 31 g ai/ha Postemergence,70
same,Kochia plant response rating,[16]; 125 g ai/ha Postemergence,80
same,"Oat, Wild plant response rating",[17]; 31 g ai/ha Postemergence,30
same,"Oat, Wild plant response rating",[17]; 125 g ai/ha Postemergence,90
same,"Pigweed, Palmer plant response rating",[18]; 31 g ai/ha Postemergence,40
same,"Pigweed, Palmer plant response rating",[18]; 125 g ai/ha Postemergence,80
same,Ragweed plant response rating,[19]; 31 g ai/ha Postemergence,10
same,Ragweed plant response rating,[19]; 125 g ai/ha Postemergence,70
same,"Ryegrass, Italian plant response rating",[20]; 31 g ai/ha Postemergence,10
same,"Ryegrass, Italian plant response rating",[20]; 125 g ai/ha Postemergence,70
same,Soybean plant response rating,[21]; 31 g ai/ha Postemergence,60
same,Soybean plant response rating,[21]; 125 g ai/ha Postemergence,80
same,Wheat plant response rating,[22]; 31 g ai/ha Postemergence,50
same,Wheat plant response rating,[22]; 125 g ai/ha Postemergence,80
same,Galium plant response rating,[23]; 31 g ai/ha Postemergence,100
same,Galium plant response rating,[23]; 125 g ai/ha Postemergence,100
same,Horseweed plant response rating,[24]; 31 g ai/ha Postemergence,20
same,Horseweed plant response rating,[24]; 125 g ai/ha Postemergence,80
same,"Plant response rating, Barnyardgrass",[25],60
same,"Plant response rating, Ducksalad",[26],80
same,"Plant response rating, Rice",[27],40
same,"Plant response rating, Sedge, Umbrella",[28],95
